Patent US20230085307A1, “PYRIDAZINONE COMPOUND AND HERBICIDE” (NISSAN CHEMICAL CORPORATION, priority 2019, published 2023)

Tests used:
chickweed [1] = assay: Test Example 5: herbicidal effect by foliage application, plastic box (Table 20, symbol P); type: in vivo, common chickweed (Stellaria media); settings: foliage application, AAH 320 g/ha, three weeks after application
Summary of the method: (§1)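 Sow seeds spot-wise in sterilized diluvial soil; cover with ~1.5 cm soil. Grow 14 days in greenhouse, 25° C. to 30° C. Spray foliage with emulsion diluted to predetermined amount. Rate effect after 3 weeks.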

persian speedwell [2] = assay: Test Example 4: herbicidal effect by soil treatment (Table 19, symbol R); type: in vivo, Persian speedwell (Veronica persica); settings: AAH 320 g/ha
Summary of the method: (§2)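 Soil-surface application: an emulsion agent diluted with water to the predetermined dose is sprayed uniformly over seeds lying under roughly 1.5 cm of sterilized diluvial soil. Boxes stay in a greenhouse at 25° C. to 30° C. Three weeks later, each species is graded on previously defined criteria.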

wild oat [3] = assay: Test Example 4: herbicidal effect by soil treatment (Table 19, symbol I); type: in vivo, wild oat (Avena fatua); settings: AAH 320 g/ha
Summary of the method: as §2

lambsquarters [4] = assay: Test Example 4: herbicidal effect by soil treatment (Table 19, symbol O); type: in vivo, lambsquarters (Chenopodium album); settings: AAH 320 g/ha
Summary of the method: as §2

chickweed [5] = assay: Test Example 4: herbicidal effect by soil treatment (Table 19, symbol P); type: in vivo, common chickweed (Stellaria media); settings: AAH 320 g/ha
Summary of the method: as §2

velvetleaf [6] = assay: Test Example 5: herbicidal effect by foliage application, plastic box (Table 20, symbol M); type: in vivo, velvetleaf (Abutilon theophrasti); settings: foliage application, AAH 320 g/ha, three weeks after application
Summary of the method: as §1

blackgrass = assay: Test Example 5: herbicidal effect by foliage application, plastic box (Table 20, symbol J); type: in vivo, blackgrass (Alopecurus myosuroides); settings: foliage application, AAH 320 g/ha, three weeks after application
Summary of the method: as §1

green foxtail [7] = assay: Test Example 5: herbicidal effect by foliage application, plastic box (Table 20, symbol G); type: in vivo, green foxtail (Setaria viridis); settings: foliage application, AAH 320 g/ha, three weeks after application
Summary of the method: as §1

southern crabgrass [8] = assay: Test Example 4: herbicidal effect by soil treatment (Table 19, symbol F); type: in vivo, southern crabgrass (Digitaria ciliaris); settings: AAH 320 g/ha
Summary of the method: as §2

Italian ryegrass [9] = assay: Test Example 4: herbicidal effect by soil treatment (Table 19, symbol K); type: in vivo, Italian ryegrass (Lolium multiflorum); settings: AAH 320 g/ha
Summary of the method: as §2

green foxtail [10] = assay: Test Example 4: herbicidal effect by soil treatment (Table 19, symbol G); type: in vivo, green foxtail (Setaria viridis); settings: AAH 320 g/ha
Summary of the method: as §2

barnyard grass [11] = assay: Test Example 5: herbicidal effect by foliage application, plastic box (Table 20, symbol H); type: in vivo, barnyard grass (Echinochloa crus-galli); settings: foliage application, AAH 320 g/ha, three weeks after application
Summary of the method: as §1

velvetleaf [12] = assay: Test Example 4: herbicidal effect by soil treatment (Table 19, symbol M); type: in vivo, velvetleaf (Abutilon theophrasti); settings: AAH 320 g/ha
Summary of the method: as §2

redroot pigweed [13] = assay: Test Example 5: herbicidal effect by foliage application, plastic box (Table 20, symbol N); type: in vivo, redroot pigweed (Amaranthus retroflexus); settings: foliage application, AAH 320 g/ha, three weeks after application
Summary of the method: as §1

southern crabgrass [14] = assay: Test Example 5: herbicidal effect by foliage application, plastic box (Table 20, symbol F); type: in vivo, southern crabgrass (Digitaria ciliaris); settings: foliage application, AAH 320 g/ha, three weeks after application
Summary of the method: as §1

Chinese sprangletop = assay: Test Example 3: herbicidal effect by foliage application, Wagner pot (Table 18, symbol D); type: in vivo, chinese sprangletop (Leptochloa chinensis); settings: 320 g/ha
Summary of the method: (§3)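 Plants were sown in alluvial soil held under 0.1–0.5 cm standing water and grown 14 days in a greenhouse at 25–30 °C. An emulsifiable formulation, water-diluted to the set dose, was then sprayed onto the foliage, and effects were scored three weeks later using previously defined criteria.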

false cleavers = assay: Test Example 5: herbicidal effect by foliage application, plastic box (Table 20, symbol Q); type: in vivo, false cleavers (Galium spurium); settings: foliage application, AAH 320 g/ha, three weeks after application
Summary of the method: as §1

barnyard grass [15] = assay: Test Example 4: herbicidal effect by soil treatment (Table 19, symbol H); type: in vivo, barnyard grass (Echinochloa crus-galli); settings: AAH 320 g/ha
Summary of the method: as §2

lambsquarters [16] = assay: Test Example 5: herbicidal effect by foliage application, plastic box (Table 20, symbol O); type: in vivo, lambsquarters (Chenopodium album); settings: foliage application, AAH 320 g/ha, three weeks after application
Summary of the method: as §1

Italian ryegrass [17] = assay: Test Example 5: herbicidal effect by foliage application, plastic box (Table 20, symbol K); type: in vivo, Italian ryegrass (Lolium multiflorum); settings: foliage application, AAH 320 g/ha, three weeks after application
Summary of the method: as §1

persian speedwell [18] = assay: Test Example 5: herbicidal effect by foliage application, plastic box (Table 20, symbol R); type: in vivo, Persian speedwell (Veronica persica); settings: foliage application, AAH 320 g/ha, three weeks after application
Summary of the method: as §1

barnyard grass [19] = assay: Test Example 3: herbicidal effect by foliage application, Wagner pot (Table 18, symbol H); type: in vivo, barnyard grass (Echinochloa crus-galli); settings: 320 g/ha
Summary of the method: as §3

windgrass [20] = assay: Test Example 5: herbicidal effect by foliage application, plastic box (Table 20, symbol L); type: in vivo, windgrass (Apera spica-venti); settings: foliage application, AAH 320 g/ha, three weeks after application
Summary of the method: as §1

rice flat sedge = assay: Test Example 3: herbicidal effect by foliage application, Wagner pot (Table 18, symbol E); type: in vivo, rice flat sedge (Cyperus iria); settings: 320 g/ha
Summary of the method: as §3

redroot pigweed [21] = assay: Test Example 4: herbicidal effect by soil treatment (Table 19, symbol N); type: in vivo, redroot pigweed (Amaranthus retroflexus); settings: AAH 320 g/ha
Summary of the method: as §2

windgrass [22] = assay: Test Example 4: herbicidal effect by soil treatment (Table 19, symbol L); type: in vivo, windgrass (Apera spica-venti); settings: AAH 320 g/ha
Summary of the method: as §2

wild oat [23] = assay: Test Example 5: herbicidal effect by foliage application, plastic box (Table 20, symbol I); type: in vivo, wild oat (Avena fatua); settings: foliage application, AAH 320 g/ha, three weeks after application
Summary of the method: as §1

Compound: CCCC(=O)Oc1c(OC)nn(C)c(=O)c1-c1c(-c2cc(F)c(F)c(F)c2)sc2ccccc12 [1-187]
- P: chickweed, herbicidal effect (chickweed [1]): 3 (Herbicidal rate of 40% or more and less than 70%)
- R: persian speedwell, herbicidal effect rating (persian speedwell [2]): 4 (Herbicidal rate of 70% or more and less than 90%)
- I: wild oat, herbicidal effect rating (wild oat [3]): 0 (Herbicidal rate of 5% or less (almost no effect))
- O: lambsquarters, herbicidal effect rating (lambsquarters [4]): 4 (Herbicidal rate of 70% or more and less than 90%)
- P: chickweed, herbicidal effect rating (chickweed [5]): 5 (Herbicidal rate of 90% or more (almost completely withered))
- M: velvetleaf, herbicidal effect (velvetleaf [6]): 4 (Herbicidal rate of 70% or more and less than 90%)
- J: blackgrass, herbicidal effect (blackgrass): 0 (Herbicidal rate of 5% or less (almost no effect))
- G: green foxtail, herbicidal effect (green foxtail [7]): 0 (Herbicidal rate of 5% or less (almost no effect))
- F: southern crabgrass, herbicidal effect rating (southern crabgrass [8]): 0 (Herbicidal rate of 5% or less (almost no effect))
- K: Italian ryegrass, herbicidal effect rating (Italian ryegrass [9]): 0 (Herbicidal rate of 5% or less (almost no effect))
- G: green foxtail, herbicidal effect rating (green foxtail [10]): 0 (Herbicidal rate of 5% or less (almost no effect))
- H: barnyard grass, herbicidal effect (barnyard grass [11]): 0 (Herbicidal rate of 5% or less (almost no effect))
- M: velvetleaf, herbicidal effect rating (velvetleaf [12]): 0 (Herbicidal rate of 5% or less (almost no effect))
- N: redroot pigweed, herbicidal effect (redroot pigweed [13]): 4 (Herbicidal rate of 70% or more and less than 90%)
- F: southern crabgrass, herbicidal effect (southern crabgrass [14]): 0 (Herbicidal rate of 5% or less (almost no effect))
- herbicidal effect on D (Chinese sprangletop), rating 0-5 (Chinese sprangletop): 0 (Herbicidal rate of 5% or less (almost no effect))
- Q: false cleavers, herbicidal effect (false cleavers): 0 (Herbicidal rate of 5% or less (almost no effect))
- H: barnyard grass, herbicidal effect rating (barnyard grass [15]): 0 (Herbicidal rate of 5% or less (almost no effect))
- O: lambsquarters, herbicidal effect (lambsquarters [16]): 5 (Herbicidal rate of 90% or more (almost completely withered))
- K: Italian ryegrass, herbicidal effect (Italian ryegrass [17]): 0 (Herbicidal rate of 5% or less (almost no effect))
- R: persian speedwell, herbicidal effect (persian speedwell [18]): 5 (Herbicidal rate of 90% or more (almost completely withered))
- herbicidal effect on H (barnyard grass), rating 0-5 (barnyard grass [19]): 0 (Herbicidal rate of 5% or less (almost no effect))
- L: windgrass, herbicidal effect (windgrass [20]): 0 (Herbicidal rate of 5% or less (almost no effect))
- herbicidal effect on E (rice flat sedge), rating 0-5 (rice flat sedge): 3 (Herbicidal rate of 40% or more and less than 70%)
- N: redroot pigweed, herbicidal effect rating (redroot pigweed [21]): 0 (Herbicidal rate of 5% or less (almost no effect))
- L: windgrass, herbicidal effect rating (windgrass [22]): 0 (Herbicidal rate of 5% or less (almost no effect))
- I: wild oat, herbicidal effect (wild oat [23]): 0 (Herbicidal rate of 5% or less (almost no effect))
